{"source": "PubChem BioAssay (NCI)", "test_in_all_cases": "NCI-60 cell line screen, 384-well format", "key": {"[1]": {"test_system": "A498 renal"}, "[2]": {"test_system": "BT-549 breast"}, "[3]": {"test_system": "SK-MEL-2 melanoma"}, "[4]": {"test_system": "IGROV1 ovarian"}, "[5]": {"test_system": "NCI/ADR-RES ovarian"}, "[6]": {"test_system": "TK-10 renal"}, "[7]": {"test_system": "HL-60(TB) leukemia"}, "[8]": {"test_system": "SK-MEL-5 melanoma"}, "[9]": {"test_system": "A549 NSCLC"}, "[10]": {"test_system": "SF-295 CNS"}, "[11]": {"test_system": "SR leukemia"}, "[12]": {"test_system": "MDA-MB-435 melanoma"}, "[13]": {"test_system": "HOP-92 NSCLC"}, "[14]": {"test_system": "T-47D breast"}, "[15]": {"test_system": "RXF 393 renal"}, "[16]": {"test_system": "HT29 colon"}, "[17]": {"test_system": "MALME-3M melanoma"}, "[18]": {"test_system": "NCI-H522 lung"}, "[19]": {"test_system": "HCT-116 colon"}, "[20]": {"test_system": "CCRF-CEM leukemia"}, "[21]": {"test_system": "MCF7 breast"}, "[22]": {"test_system": "UO-31 renal"}, "[23]": {"test_system": "SK-MEL-28 melanoma"}, "[24]": {"test_system": "CAKI-1 renal"}, "[25]": {"test_system": "MDA-MB-468 breast"}, "[26]": {"test_system": "OVCAR-5 ovarian"}, "[27]": {"test_system": "COLO 205 colon"}, "[28]": {"test_system": "OVCAR-8 ovarian"}, "[29]": {"test_system": "RPMI-8226 leukemia"}, "[30]": {"test_system": "NCI-H226 lung"}, "[31]": {"test_system": "OVCAR-4 ovarian"}, "[32]": {"test_system": "UACC-257 melanoma"}, "[33]": {"test_system": "NCI-H23 lung"}, "[34]": {"test_system": "SNB-75 CNS"}, "[35]": {"test_system": "NCI-H460 NSCLC"}, "[36]": {"test_system": "K-562 leukemia"}, "[37]": {"test_system": "HCC-2998 colon"}, "[38]": {"test_system": "M14 melanoma"}, "[39]": {"test_system": "HCT-15 colon"}, "[40]": {"test_system": "PC-3 prostate"}, "[41]": {"test_system": "SF-268 CNS"}, "[42]": {"test_system": "HS 578T breast"}, "[43]": {"test_system": "OVCAR-3 ovarian"}, "[44]": {"test_system": "LOX IMVI melanoma"}, "[45]": {"test_system": "SK-OV-3 ovarian"}, "[46]": {"test_system": "SN12C renal"}, "[47]": {"test_system": "EKVX NSCLC"}}, "note": "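GI50 is the concentration that inhibits growth by half. TGI marks complete inhibition of growth.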"}
{"compound": "Cn1cc(-c2ccc(-c3cncc(Cl)c3N3CCC4(CCNC4=O)CC3)cc2)cn1", "values": [{"measurement": "GI50", "setting": "[1]", "value": 4.45, "unit": "µM"}, {"measurement": "TGI", "setting": "[1]", "value": 33.1, "unit": "µM"}, {"measurement": "GI50", "setting": "[2]", "value": 19.9, "unit": "µM"}, {"measurement": "TGI", "setting": "[2]", "value": 58.5, "unit": "µM"}, {"measurement": "GI50", "setting": "[3]", "value": 16.9, "unit": "µM"}, {"measurement": "TGI", "setting": "[3]", "value": 39.2, "unit": "µM"}, {"measurement": "GI50", "setting": "[4]", "value": 25.2, "unit": "µM"}, {"measurement": "TGI", "setting": "[4]", "value": "> 100", "unit": "µM"}, {"measurement": "GI50", "setting": "[5]", "value": 22.1, "unit": "µM"}, {"measurement": "TGI", "setting": "[5]", "value": "> 71.5", "unit": "µM"}, {"measurement": "GI50", "setting": "[6]", "value": 11.2, "unit": "µM"}, {"measurement": "TGI", "setting": "[6]", "value": 99.9, "unit": "µM"}, {"measurement": "GI50", "setting": "[7]", "value": 1.73, "unit": "µM"}, {"measurement": "TGI", "setting": "[7]", "value": 5.74, "unit": "µM"}, {"measurement": "GI50", "setting": "[8]", "value": 15.6, "unit": "µM"}, {"measurement": "TGI", "setting": "[8]", "value": 33.5, "unit": "µM"}, {"measurement": "GI50", "setting": "[9]", "value": 24.5, "unit": "µM"}, {"measurement": "TGI", "setting": "[9]", "value": 98, "unit": "µM"}, {"measurement": "GI50", "setting": "[10]", "value": 25.2, "unit": "µM"}, {"measurement": "TGI", "setting": "[10]", "value": "> 87.2", "unit": "µM"}, {"measurement": "TGI", "setting": "[11]", "value": 0.485, "unit": "µM"}, {"measurement": "GI50", "setting": "[12]", "value": 30.1, "unit": "µM"}, {"measurement": "TGI", "setting": "[12]", "value": "> 91.6", "unit": "µM"}, {"measurement": "GI50", "setting": "[13]", "value": 40.6, "unit": "µM"}, {"measurement": "TGI", "setting": "[13]", "value": "> 100", "unit": "µM"}, {"measurement": "GI50", "setting": "[14]", "value": 13.5, "unit": "µM"}, {"measurement": "TGI", "setting": "[14]", "value": 48.4, "unit": "µM"}, {"measurement": "GI50", "setting": "[15]", "value": 14.7, "unit": "µM"}, {"measurement": "TGI", "setting": "[15]", "value": "> 96.1", "unit": "µM"}, {"measurement": "GI50", "setting": "[16]", "value": 9.55, "unit": "µM"}, {"measurement": "TGI", "setting": "[16]", "value": "> 93.3", "unit": "µM"}, {"measurement": "GI50", "setting": "[17]", "value": 30.3, "unit": "µM"}, {"measurement": "TGI", "setting": "[17]", "value": "> 100", "unit": "µM"}, {"measurement": "GI50", "setting": "[18]", "value": 13.1, "unit": "µM"}, {"measurement": "TGI", "setting": "[18]", "value": 48.2, "unit": "µM"}, {"measurement": "GI50", "setting": "[19]", "value": 13.8, "unit": "µM"}, {"measurement": "TGI", "setting": "[19]", "value": 47.3, "unit": "µM"}, {"measurement": "GI50", "setting": "[20]", "value": 8.63, "unit": "µM"}, {"measurement": "TGI", "setting": "[20]", "value": 23.9, "unit": "µM"}, {"measurement": "GI50", "setting": "[21]", "value": 15.9, "unit": "µM"}, {"measurement": "TGI", "setting": "[21]", "value": 52.8, "unit": "µM"}, {"measurement": "GI50", "setting": "[22]", "value": 26.9, "unit": "µM"}, {"measurement": "TGI", "setting": "[22]", "value": "> 100", "unit": "µM"}, {"measurement": "GI50", "setting": "[23]", "value": 20, "unit": "µM"}, {"measurement": "TGI", "setting": "[23]", "value": "> 65.3", "unit": "µM"}, {"measurement": "GI50", "setting": "[24]", "value": 22.5, "unit": "µM"}, {"measurement": "TGI", "setting": "[24]", "value": "> 100", "unit": "µM"}, {"measurement": "GI50", "setting": "[25]", "value": 3.15, "unit": "µM"}, {"measurement": "TGI", "setting": "[25]", "value": 18.4, "unit": "µM"}, {"measurement": "GI50", "setting": "[26]", "value": "> 100", "unit": "µM"}, {"measurement": "TGI", "setting": "[26]", "value": "> 100", "unit": "µM"}, {"measurement": "GI50", "setting": "[27]", "value": 16.3, "unit": "µM"}, {"measurement": "TGI", "setting": "[27]", "value": "> 60", "unit": "µM"}, {"measurement": "GI50", "setting": "[28]", "value": 25.1, "unit": "µM"}, {"measurement": "TGI", "setting": "[28]", "value": "> 100", "unit": "µM"}, {"measurement": "GI50", "setting": "[29]", "value": 1.17, "unit": "µM"}, {"measurement": "TGI", "setting": "[29]", "value": 18.4, "unit": "µM"}, {"measurement": "GI50", "setting": "[30]", "value": 18.6, "unit": "µM"}, {"measurement": "TGI", "setting": "[30]", "value": 59.8, "unit": "µM"}, {"measurement": "GI50", "setting": "[31]", "value": 39.6, "unit": "µM"}, {"measurement": "TGI", "setting": "[31]", "value": "> 90", "unit": "µM"}, {"measurement": "GI50", "setting": "[32]", "value": 35.6, "unit": "µM"}, {"measurement": "TGI", "setting": "[32]", "value": "> 71.3", "unit": "µM"}, {"measurement": "GI50", "setting": "[33]", "value": 22.5, "unit": "µM"}, {"measurement": "TGI", "setting": "[33]", "value": 59, "unit": "µM"}, {"measurement": "GI50", "setting": "[34]", "value": 40, "unit": "µM"}, {"measurement": "TGI", "setting": "[34]", "value": "> 95.9", "unit": "µM"}, {"measurement": "GI50", "setting": "[35]", "value": 21.1, "unit": "µM"}, {"measurement": "TGI", "setting": "[35]", "value": 62.2, "unit": "µM"}, {"measurement": "GI50", "setting": "[36]", "value": 19, "unit": "µM"}, {"measurement": "TGI", "setting": "[36]", "value": "> 100", "unit": "µM"}, {"measurement": "GI50", "setting": "[37]", "value": 15.5, "unit": "µM"}, {"measurement": "TGI", "setting": "[37]", "value": 47.9, "unit": "µM"}, {"measurement": "GI50", "setting": "[38]", "value": 39.4, "unit": "µM"}, {"measurement": "TGI", "setting": "[38]", "value": "> 100", "unit": "µM"}, {"measurement": "GI50", "setting": "[39]", "value": 14.6, "unit": "µM"}, {"measurement": "TGI", "setting": "[39]", "value": "> 66.4", "unit": "µM"}, {"measurement": "GI50", "setting": "[40]", "value": 26.3, "unit": "µM"}, {"measurement": "TGI", "setting": "[40]", "value": "> 100", "unit": "µM"}, {"measurement": "GI50", "setting": "[41]", "value": 45.8, "unit": "µM"}, {"measurement": "TGI", "setting": "[41]", "value": "> 100", "unit": "µM"}, {"measurement": "GI50", "setting": "[42]", "value": 49.1, "unit": "µM"}, {"measurement": "TGI", "setting": "[42]", "value": "> 100", "unit": "µM"}, {"measurement": "GI50", "setting": "[43]", "value": 17.3, "unit": "µM"}, {"measurement": "TGI", "setting": "[43]", "value": 51.3, "unit": "µM"}, {"measurement": "GI50", "setting": "[44]", "value": 29.5, "unit": "µM"}, {"measurement": "TGI", "setting": "[44]", "value": "> 75.1", "unit": "µM"}, {"measurement": "GI50", "setting": "[45]", "value": 34, "unit": "µM"}, {"measurement": "TGI", "setting": "[45]", "value": "> 100", "unit": "µM"}, {"measurement": "GI50", "setting": "[46]", "value": 45.2, "unit": "µM"}, {"measurement": "TGI", "setting": "[46]", "value": "> 100", "unit": "µM"}, {"measurement": "GI50", "setting": "[47]", "value": 20.8, "unit": "µM"}, {"measurement": "TGI", "setting": "[47]", "value": 78.8, "unit": "µM"}]}
